Data: BindingDB's records for patent US12173018 (Venatorx Pharmaceuticals, 2024)

Target: T1, Peptidoglycan D,D-transpeptidase FtsI (UniProt P0AD68)
T1 sequence (P0AD68 whole entry): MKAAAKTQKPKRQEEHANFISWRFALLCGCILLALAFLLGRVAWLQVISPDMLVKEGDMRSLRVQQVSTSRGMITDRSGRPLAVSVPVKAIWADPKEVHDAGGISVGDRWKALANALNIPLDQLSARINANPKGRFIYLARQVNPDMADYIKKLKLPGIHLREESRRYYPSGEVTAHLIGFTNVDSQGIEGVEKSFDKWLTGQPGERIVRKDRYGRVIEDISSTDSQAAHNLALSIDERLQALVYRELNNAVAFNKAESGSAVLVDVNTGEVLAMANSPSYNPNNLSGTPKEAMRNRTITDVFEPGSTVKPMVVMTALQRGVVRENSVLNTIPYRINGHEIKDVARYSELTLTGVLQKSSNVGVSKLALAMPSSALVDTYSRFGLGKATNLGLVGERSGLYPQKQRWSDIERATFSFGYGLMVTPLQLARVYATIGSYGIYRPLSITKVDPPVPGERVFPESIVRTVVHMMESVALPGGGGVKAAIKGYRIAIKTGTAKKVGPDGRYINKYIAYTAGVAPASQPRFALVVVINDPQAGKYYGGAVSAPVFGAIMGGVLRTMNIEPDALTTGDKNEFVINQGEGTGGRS
Experiment: Fluorescence Polarization (FP) Competition Binding Assay
Method: To establish assay conditions for competition binding, an enzyme titration/saturation binding experiment was initially performed. Bocillin-FL was prepared at 0.2 μM in a buffer comprised of 50 mM Hepes (pH 8.0), 300 mM NaCl and 5% (v/v) glycerol. […] FP was measured immediately upon mixing (Excitation, 490 nm; Emission, 520 nm; g-factor, 0.96), using a Cytation3 (BioTek) microplate reader and measured continuously for up to 120 minutes. […] Bocillin-FL was added and the FP immediately measured for 60 minutes (90 minutes for PBP2).

CCN1CCN(C(=O)NC(C(=O)N[C@H]2Cc3cccc(C(=O)O)c3OB2O)c2ccc(O)c(S(N)(=O)=O)c2)C(=O)C1=O (some centres not stated) [US12173018, Example 143]
EC50: < 30 µM

NCCN1CCN(C(=O)N[C@@H](C(=O)N[C@H]2Cc3cccc(C(=O)O)c3OB2O)c2ccc(O)c(O)c2Cl)C(=O)C1=O [US12173018, Example 220]
EC50: < 30 µM
